The values that follow come from patent publication US20250295798A1, “LIGAND-DRUG CONJUGATE OF EXATECAN ANALOGUE, AND MEDICAL USE THEREOF” (BeiGene Switzerland GmbH, priority 2022, published 2025).

Holding throughout (assay type): cell-based, human
One assay has as its system MDA-MB-453. The experiment in a line: Compounds cellular killing in MDA-MB-453. As for the experimental part: Seeding cells MDA-MB-453 (2E3/well) into 96-well plate (Greiner: 655090), 100 ul/well. Incubation at 37° C., 5% CO2, overnight.
Adding the fresh growth-medium containing the varying concentrations of compounds, 50 ul/well.
Incubation at 37° C., 5% CO2, 6 days.
The cell viability detected by Cell Titer-Glo (Promega, G7573). Add 70 µL/well of CellTiter-Glo® Reagent in each well.
Allow the plates to incubate at room temperature for 10 minutes to stabilize luminescent signal.
Analyze with Microplate Reader.

A further assay deals with A375. The experiment in a line: Compounds cellular killing in A375. To be noted: Homo sapiens, A375, 6 days, Cell Titer-Glo. In outline: (§1)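 A375 (1E3/well) or Calu-6 (2E3/well) cells were seeded overnight, then exposed to varying compound concentrations for 6 days at 37 °C, 5% CO2. Viability was read by CellTiter-Glo luminescence.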
For the next assay, the system named is Calu-6. The experiment in a line: Compounds cellular killing in Calu-6. To be noted: Homo sapiens, Calu-6, 6 days, Cell Titer-Glo. In short, it runs like this: as §1
(In ATP-based viability assays light output follows the ATP content of the culture.)

Where a name gives a salt, the structure may show the parent alone.

For the compound `CC[C@@]1(O)C(=O)OCc2c1cc1n(c2=O)Cc2c-1nc1cc(F)c(C)c3c1c2[C@@H](N(C)C)CC3` [Example 1-5, (1S,9S)-1-(dimethylamino)-9-ethyl-5-fluoro-9-hydroxy-4-methyl-1,2,3,9,12,15-hexahydro-10H,13H-benzo[de]pyrano[3′,4′:6,7]indolizino[1,2-b]quinoline-10,13-dione], in the assay on MDA-MB-453 (Homo sapiens, MDA-MB-453, […]), it took 1.3 nM to reach a half-maximal effect (EC50) and the Emax (commonly the greatest response seen or fitted, relative to the assay's reference) is 93.3%. Moreover, the “killing activity compared with 1-B” value with MDA-MB-453 (MDA-MB-453, FIG. 1) is “comparable killing activity to 1-B”.
Regarding `CC[C@@]1(O)C(=O)OCc2c1cc1n(c2=O)Cc2c-1nc1cc(F)c(Cl)c3c1c2[C@@H](NC(=O)C(C)(C)CO)CC3` [Example 2-34, N-((1S,9S)-4-chloro-9-ethyl-5-fluoro-9-hydroxy-10,13-dioxo-2,3,9,10,13,15-hexahydro-1H,12H-benzo[de]pyrano[3′,4′:6,7]indolizino[1,2-b]quinolin-1-yl)-3-hydroxy-2,2-dimethylpropanamide], in the assay with A375 (A-375, […]), the response was half-maximal at 0.8 nM (EC50) and the Emax is 98.9%. Also, in the assay with Calu-6 (Calu-6, […]), the response was half-maximal at 0.5 nM (EC50) and the Emax was found to be 99.4%.
`CC[C@@]1(O)C(=O)OCc2c1cc1n(c2=O)Cc2c-1nc1cc3c(c4c1c2[C@@H](NC(=O)C(C)(C)CO)CC4)OCO3` [Example 2-35, N-((1S,10S)-10-ethyl-10-hydroxy-11,14-dioxo-2,3,10,11,14,16-hexahydro-1H,13H-benzo[de][1,3]dioxolo[4,5-g]pyrano[3′,4′:6,7]indolizino[1,2-b]quinolin-1-yl)-3-hydroxy-2,2-dimethylpropanamide]: the EC50 (usually the concentration needed to bring the measured effect to its halfway point) in the assay on A375 (A-375, […]) came to 1.6 nM; with Calu-6 (Calu-6, […]), 0.2 nM. The Emax stood at 100% in the assay with A375 (A-375, […]) and 98.6% with Calu-6 (Calu-6, […]).
Consider `CC[C@@]1(O)C(=O)OCc2c1cc1n(c2=O)Cc2c-1nc1cc(F)c(C)c3c1c2[C@@H](NC(=O)[C@@H]1C[C@@H](O)CN1C)CC3` [Example 2-36, (2S,4R)—N-((1S,9S)-9-ethyl-5-fluoro-9-hydroxy-4-methyl-10,13-dioxo-2,3,9,10,13,15-hexahydro-1H,12H-benzo[de]pyrano[3′,4′:6,7]indolizino[1,2-b]quinolin-1-yl)-4-hydroxy-1-methylpyrrolidine-2-carboxamide], for which the EC50 in the assay on A375 (A-375, […]) came out at 13.9 nM; with Calu-6 (Calu-6, […]) it was 6.2 nM. For the same compound, the maximal response (Emax) in the assay on A375 (A-375, […]) was determined as 97.8%; with Calu-6 (Calu-6, […]), 97.7%.
As for `CC[C@@]1(O)C(=O)OCc2c1cc1n(c2=O)Cc2c-1nc1cc(F)c(C)c3c1c2[C@@H](NC(=O)[C@@H]1C[C@H](O)CN1C)CC3` [Example 2-37, (2S,4S)—N-((1S,9S)-9-ethyl-5-fluoro-9-hydroxy-4-methyl-10,13-dioxo-2,3,9,10,13,15-hexahydro-1H,12H-benzo[de]pyrano[3′,4′:6,7]indolizino[1,2-b]quinolin-1-yl)-4-hydroxy-1-methylpyrrolidine-2-carboxamide], the EC50 in the assay on A375 (A-375, […]) stood at 3.7 nM; with Calu-6 (Calu-6, […]), 1.5 nM. Besides, the Emax amounted to 99.9% with A375 (A-375, […]) and 98.8% in the assay on Calu-6 (Calu-6, […]).
In the assay on A375 (A-375, […]), `CC[C@@]1(O)C(=O)OCc2c1cc1n(c2=O)Cc2c-1nc1cc(F)c(C)c3c1c2[C@@H](NC(=O)[C@@H]1C[C@H](O)CN1C(C)=O)CC3` [Example 2-38, (2S,4S)-1-acetyl-N-((1S,9S)-9-ethyl-5-fluoro-9-hydroxy-4-methyl-10,13-dioxo-2,3,9,10,13,15-hexahydro-1H,12H-benzo[de]pyrano[3′,4′:6,7]indolizino[1,2-b]quinolin-1-yl)-4-hydroxypyrrolidine-2-carboxamide] had an EC50 of 30.9 nM and an Emax of 98.7%. In the assay on Calu-6 (Calu-6, […]), this compound gave an EC50 of 12.9 nM and an Emax of 96.4%.
On to `CC[C@@]1(O)C(=O)OCc2c1cc1n(c2=O)Cc2c-1nc1cc(F)c(C)c3c1c2[C@@H](NC(=O)C(C)(F)CO)CC3` (stereo partly drawn) [Example 2-41, N-((1S,9S)-9-ethyl-5-fluoro-9-hydroxy-4-methyl-10,13-dioxo-2,3,9,10,13,15-hexahydro-1H,12H-benzo[de]pyrano[3′,4′:6,7]indolizino[1,2-b]quinolin-1-yl)-2-fluoro-3-hydroxy-2-methylpropanamide], for which the EC50 in the assay with A375 (A-375, […]) came out at 1.5 nM; with Calu-6 (Calu-6, […]) it was 0.6 nM. Also, the Emax in the assay with A375 (A-375, […]) came out at 99.9%; in the assay with Calu-6 (Calu-6, […]), 98.2%.
For `CC[C@@]1(O)C(=O)OCc2c1cc1n(c2=O)Cc2c-1nc1cc(F)c(C)c3c1c2C(CCCN)CC3` (stereo partly drawn) [Example 2-42, (9S)-1-(3-aminopropyl)-9-ethyl-5-fluoro-9-hydroxy-4-methyl-1,2,3,9,12,15-hexahydro-10H,13H-benzo[de]pyrano[3′,4′:6,7]indolizino[1,2-b]quinoline-10,13-dione formate], the EC50 is 20.7 nM with A375 (A-375, […]) and 2.8 nM with Calu-6 (Calu-6, […]). For the same compound, the maximal effect (Emax) stood at 99.6% in the assay on A375 (A-375, […]) and 99.2% in the assay on Calu-6 (Calu-6, […]).
As to `CC[C@@]1(O)C(=O)OCc2c1cc1n(c2=O)Cc2c-1nc1cc(F)cc3c1c2[C@@H](NC(=O)C(C)(C)CO)CC3` [Example 2-43, N-((1S,9S)-9-ethyl-5-fluoro-9-hydroxy-10,13-dioxo-2,3,9,10,13,15-hexahydro-1H,12H-benzo[de]pyrano[3′,4′:6,7]indolizino[1,2-b]quinolin-1-yl)-3-hydroxy-2,2-dimethylpropanamide], in the assay on A375 (A-375, […]), the EC50 was 3.6 nM and the Emax worked out at 100%. In the assay on Calu-6 (Calu-6, […]), this compound returned an EC50 of 1.1 nM and an Emax of 99.2%.
On to `CC[C@@]1(O)C(=O)OCc2c1cc1n(c2=O)Cc2c-1nc1cc(F)c(C)c3c1c2C(CCO)CC3` (stereo partly drawn) [Example 2-46, (9S)-9-ethyl-5-fluoro-9-hydroxy-1-(2-hydroxyethyl)-4-methyl-1,2,3,9,12,15-hexahydro-10H,13H-benzo[de]pyrano[3′,4′:6,7]indolizino[1,2-b]quinoline-10,13-dione], for which the EC50 in the assay with A375 (A-375) is 0.7 nM; with Calu-6 it was 0.2 nM. Besides, the Emax in the assay on A375 (A-375) is 100%; with Calu-6 (Calu-6, […]), 98.1%.
In the assay with A375 (A-375, […]), `CC[C@@]1(O)C(=O)OCc2c1cc1n(c2=O)Cc2c-1nc1cc(F)c(C)c3c1c2C(C(=O)N1CCC1CO)CC3` (stereo partly drawn) [Example 2-47, (9S)-9-ethyl-5-fluoro-9-hydroxy-1-(2-(hydroxymethyl)azetidine-1-carbonyl)-4-methyl-1,2,3,9,12,15-hexahydro-10H,13H-benzo[de]pyrano[3′,4′:6,7]indolizino[1,2-b]quinoline-10,13-dione] came in with an EC50 of 6.7 nM and an Emax of 99.7%. In the assay on Calu-6 (Calu-6, […]), this compound displayed an EC50 of 1.8 nM and an Emax of 99.5%.
In the assay with A375 (A-375, […]), `CC[C@@]1(O)C(=O)OCc2c1cc1n(c2=O)Cc2c-1nc1cc(F)c(C)c3c1c2C(CCCCO)CC3` (stereo partly drawn) [Example 2-48, (9S)-9-ethyl-5-fluoro-9-hydroxy-1-(4-hydroxybutyl)-4-methyl-1,2,3,9,12,15-hexahydro-10H,13H-benzo[de]pyrano[3′,4′:6,7]indolizino[1,2-b]quinoline-10,13-dione] returned an EC50 of 0.4 nM and a maximal response (Emax) of 99.5%. Further, in the assay with Calu-6 (Calu-6, […]), the EC50 came out at 0.1 nM and the Emax turned out to be 98.7%.
In the assay with A375 (A-375, […]), `CC[C@@]1(O)C(=O)OCc2c1cc1n(c2=O)Cc2c-1nc1cc(F)c(C)c3c1c2C(CNCCO)CC3` (stereo partly drawn) [Example 2-53, Nbenzyl (9S)-9-ethyl-5-fluoro-9-hydroxy-1-(((2-hydroxyethyl)amino)methyl)-4-methyl-1,2,3,9,12,15-hexahydro-10H,13H-benzo[de]pyrano[3′,4′:6,7]indolizino[1,2-b]quinoline-10,13-dione] yielded an EC50 of 5.1 nM and an Emax of 99.9%. In the assay on Calu-6 (Calu-6, […]), the EC50 was 1.6 nM and the Emax amounted to 98.7%.
Take `CC[C@@]1(O)C(=O)OCc2c1cc1n(c2=O)Cc2c-1nc1cc(F)c(C)c3c1c2C(CN(C)CCO)CC3` (stereo partly drawn) [Example 2-54, (9S)-9-ethyl-5-fluoro-9-hydroxy-1-(((2-hydroxyethyl)(methyl)amino)methyl)-4-methyl-1,2,3,9,12,15-hexahydro-10H,13H-benzo[de]pyrano[3′,4′:6,7]indolizino[1,2-b]quinoline-10,13-dione]: the half-maximal effective concentration (EC50) in the assay on A375 (A-375, […]) is 0.9 nM; with Calu-6 (Calu-6, […]), 0.2 nM. Besides, the maximal response (Emax) worked out at 100% with A375 (A-375, […]) and 98.2% in the assay on Calu-6 (Calu-6, […]).
`CC[C@@]1(O)C(=O)OCc2c1cc1n(c2=O)Cc2c-1nc1cc(F)c(C)c3c1c2C(CNCCCO)CC3` (stereo partly drawn) [Example 2-55, (9S)-9-ethyl-5-fluoro-9-hydroxy-1-(((3-hydroxypropyl)amino)methyl)-4-methyl-1,2,3,9,12,15-hexahydro-10H,13H-benzo[de]pyrano[3′,4′:6,7]indolizino[1,2-b]quinoline-10,13-dione]: in the assay on A375 (A-375, […]), a half-maximal response (EC50) required 7.3 nM and the Emax is 99.8%. Further, in the assay with Calu-6 (Calu-6, […]), the EC50 is 2.8 nM and the maximal effect (Emax) was 99.3%.
In the assay on A375 (A-375, […]), `CC[C@@]1(O)C(=O)OCc2c1cc1n(c2=O)Cc2c-1nc1cc(Cl)c(C)c3c1c2[C@@H](NC(=O)C(C)(F)CO)CC3` (stereo partly drawn) [Example 2-58, N-((1S,9S)-5-chloro-9-ethyl-9-hydroxy-4-methyl-10,13-dioxo-2,3,9,10,13,15-hexahydro-1H,12H-benzo[de]pyrano[3′,4′:6,7]indolizino[1,2-b]quinolin-1-yl)-2-fluoro-3-hydroxy-2-methylpropanamide] returned an EC50 of 2.9 nM and an Emax of 99.9%. Also, in the assay on Calu-6 (Calu-6, […]), the EC50 is 0.9 nM and the maximum response (Emax) was found to be 98.8%.
